Source: publication PMC10706865, “Repurposing Study of 4-Acyl-1-phenylaminocarbonyl-2-substituted-piperazine Derivatives as Potential Anticancer Agents—In Vitro Evaluation against Breast Cancer Cells” (International Journal of Molecular Sciences, 2023)
“And” between values parts separate entries of the source, which are not always exact repeats. Identical values can stand only once. Like-named read-outs stand apart in the source and are kept apart here.

What was measured:
[1] = test system: MCF7 human breast cancer cells; assay: MTT cell viability assay, MCF7 breast cancer cells; assay type: cell-based; conditions: for IC50: MTT assay; for Selectivity Index: IC50 MCF 10A divided by IC50 MCF7, 72 h, MTT
Method: (§1) To evaluate the cytotoxicity of our compounds against cancer cells, they were evaluated in vitro against MCF7 human breast cancer cells. To examine the selectivity of our compounds, they were also studied against MCF 10A human normal cells. Both cell lines were exposed to different concentrations of our compounds for 72 h before measuring cell viability with the 3-(4,5-dimethylthiazol-2-yl)-2,5-diphenyltetrazolium bromide (MTT) assay (for conditions of the MTT assay, see the Experimental Part, Section 3). Docetaxel, an anticancer drug used in clinics, was tested under the same experimental conditions. Data were obtained from at least two independent experiments and were expressed as means ± standard error of means (SEM). The half-maximal inhibitory concentration (IC50) value of each compound was calculated, and the results are collected in Table 2. To evaluate the selective activity of our compounds, the selectivity index (SI) was also calculated. The curves of cell viability of MCF7 cancer cells and MCF 10A normal cells after the treatment with our compounds are shown (Figure 5, Figure 6, Figure 7, Figure 8 and Figure 9 and Figures S1–S4).
(§2) Exponentially growing cells were seeded into 96-well plates, and drugs were added 24 h later. Each compound was dissolved with DMSO (Panreac Applichem) to prepare a stock solution (100 mM). The working solutions of specific concentrations were prepared via the dilution of the stock solutions in the culture medium and were immediately used to treat the cells. The remaining stock solutions were aliquoted and frozen at −40 °C. We used different aliquots in each independent experiment to avoid the freeze–thaw cycles. Cells were exposed to the drugs for 72 h. After these 72 h, cell viability was determined with the MTT assay or the resazurin assay. These assays are colorimetric techniques that are widely used to determine cell viability.
(§3) The MTT assay is based on the capability of viable cells to transform the MTT salt into a purple formazan dye. After an incubation period of the cells with the MTT and a solubilization step, the quantity of the colored product is measured with a plate reading spectrophotometer. […] The quantity of formazan produced is presumably proportional to the number of viable cells. After seeding for 24 h, cells were treated with the tested drugs for 72 h. Then, medium was removed, and 125 μL of MTT (1 mg/mL in medium) was added to each well for 3–4 h. Subsequently, 80 μL of 20% sodium dodecyl sulfate (Panreac Applichem) in 20 mM hydrochloric acid (Panreac Applichem) was added to dissolve the insoluble purple formazan product, plates were incubated for 10 h at 37 °C, and optical densities were measured at 540 nm on a multiwell plate spectrophotometer reader.
(§4) In both assays, cell viability was expressed as percentage in relation to controls. All data were averaged from at least two independent experiments and were expressed as mean ± standard error of the mean (SEM). Selectivity indices (SI) were calculated by dividing the IC50 values in the nonmalignant cells by those in the cancer cells.

[2] = test system: MCF 10A human normal breast cells; assay: MTT cell viability assay, MCF 10A normal breast cells; assay type: cell-based
Method: as §1, §2, §3, §4

[3] = Homo sapiens, MCF7, 72 h, 72 h exposure, read-out: IC50 (Mean ± SEM; μM) MCF7 (Cancer)
[4] = 72 h exposure, read-out: IC50 (Mean ± SEM; μM) MCF 10A (Normal)
[5] = 72 h exposure, read-out: IC50 (Mean ± SEM; μM) MCF7 (Cancer)

Row | Structure (SMILES) | IC50 [1, 3] [µM] | IC50 [1, 5] [µM] | IC50 ([1]; Homo sapiens, MCF7, 72 h, docetaxel line in nM, 72 h, read-out: IC50 (Mean ± SEM) MCF7 (Cancer)) [µM] | Selectivity Index [1] | IC50 [2, 4] [µM] | IC50 ([2]; docetaxel line in nM, 72 h, read-out: IC50 (Mean ± SEM) MCF 10A (Normal)) [µM]
1 | COc1ccc(NC(=O)N2CCN(C(=O)C(C)(C)C)CC2C)cc1 (stereo not drawn) [Compound 8] | 118 ± 48.7 |  |  | 5.2 ± 3.1 | 541 ± 259 | 
2 | CC1CN(C(=O)c2ccccc2)CCN1C(=O)Nc1ccc([N+](=O)[O-])cc1 (stereo not drawn) [Compound 10] | 26.7 ± 3.3 |  |  | 1.3 ± 0.1 | 34.1 ± 1.7 | 
3 | COc1ccc(NC(=O)N2CCN(C(=O)c3ccccc3)CC2C)cc1 (stereo not drawn) [Compound 11] | 359 ± 74.7 |  |  | 1.4 ± 0.4 | 478 ± 35.6 | 
4 | CC1CN(C(=O)OC(C)(C)C)CCN1C(=O)Nc1ccc([N+](=O)[O-])cc1 (stereo not drawn) [Compound 12] | 34.6 ± 4.8 |  |  | 2.4 ± 0.0 | 84.2 ± 12.4 | 
5 | CC1CN(C(=O)OC(C)(C)C)CCN1C(=O)Nc1ccc(C(F)(F)F)c(Cl)c1 (stereo not drawn) [Compound 17] | 22.7 ± 1.6 |  |  | 1.9 ± 0.2 | 41.7 ± 4.1 | 
6 | CC1CN(C(=O)c2cc3ccccc3o2)CCN1C(=O)Nc1ccc(C#N)cc1 (stereo not drawn) [Compound 21] | < 20 | 19.4 ± 3.8 |  | 1.6 ± 0.2 | 31.2 ± 2.8 | 
7 | CC1CN(C(=O)c2cc3ccccc3o2)CCN1C(=O)Nc1ccccc1 (stereo not drawn) [Compound 25] | 48.5 ± 10.1 |  |  | 3.2 ± 0.7 | 161 ± 64.6 | 
8 | CC(C)(C)OC(=O)N1CCN(C(=O)Nc2ccc([N+](=O)[O-])cc2)C(c2ccccc2)C1 (stereo not drawn) [Compound 26] |  |  |  | 15.2 ± 11.1 | 71.3 ± 3.6 | 
9 | CC(C)(C)OC(=O)N1CCN(C(=O)Nc2ccc(Cl)cc2)C(c2ccccc2)C1 (stereo not drawn) [Compound 27] | < 20 | 16.8 ± 4 |  | 2.2 ± 0.9 | 33.8 ± 6 | 
10 | CC(C)(C)OC(=O)N1CCN(C(=O)Nc2ccccc2[N+](=O)[O-])C(c2ccccc2)C1 (stereo not drawn) [Compound 30] | 24.3 ± 3.4 |  |  | 2.6 ± 0.1 | 63.2 ± 10.9 | 
11 | Cc1ccc(NC(=O)N2CCN(C(=O)OC(C)(C)C)CC2c2ccccc2)cc1 (stereo not drawn) [Compound 34] | 24.4 ± 3.1 |  |  | 2.9 ± 0.5 | 68.7 ± 2.8 | 
12 | O=C(c1cc2ccccc2o1)N1CCN(C(=O)Nc2cc(C(F)(F)F)ccc2Cl)C(c2ccccc2)C1 (stereo not drawn) [Compound 38] | 91.9 ± 35.7 |  |  | 1.4 ± 0.3 | 117 ± 21.1 | 
13 | CC(=O)O[C@@]12CO[C@@H]1C[C@H](O)[C@@]1(C)C(=O)[C@H](O)C3=C(C)[C@@H](OC(=O)[C@H](O)[C@@H](NC(=O)OC(C)(C)C)c4ccccc4)C[C@@](O)([C@@H](OC(=O)c4ccccc4)[C@H]21)C3(C)C [Docetaxel, reference compound] |  |  | 0.0761 ± 0.0262 | ˂1 |  | < 0.001

The next lines start with results.

Row | IC50 [1, 3] [µM] | IC50 [1, 5] [µM] | IC50 ([1]; Homo sapiens, MCF7, 72 h, docetaxel line in nM, 72 h, read-out: IC50 (Mean ± SEM) MCF7 (Cancer)) [µM] | Structure (SMILES) | Selectivity Index [1] | IC50 [2, 4] [µM] | IC50 ([2]; docetaxel line in nM, 72 h, read-out: IC50 (Mean ± SEM) MCF 10A (Normal)) [µM]
14 | 60.8 ± 1.2 |  |  | CC1CN(C(=O)C(C)(C)C)CCN1C(=O)Nc1ccc([N+](=O)[O-])cc1 (stereo not drawn) [Compound 7] | 0.6 ± 0.1 | 38.5 ± 4.6 | 
15 | < 20 | 15.8 ± 8.2 |  | CC1CN(C(=O)C(C)(C)C)CCN1C(=S)Nc1ccc([N+](=O)[O-])cc1 (stereo not drawn) [Compound 9] | 4.2 ± 1.0 | 58.2 ± 18.3 | 
16 | 250 ± 19.4 |  |  | COc1ccc(NC(=O)N2CCN(C(=O)OC(C)(C)C)CC2C)cc1 (stereo not drawn) [Compound 13] | 3.6 ± 0.6 | 915 ± 226 | 
17 | 34.2 ± 0.1 |  |  | CC1CN(C(=O)OC(C)(C)C)CCN1C(=S)Nc1ccc([N+](=O)[O-])cc1 (stereo not drawn) [Compound 14] | 1.0 ± 0.1 | 35.6 ± 4.5 | 
18 | 43.4 ± 3.7 |  |  | CC1CN(C(=O)OC(C)(C)C)CCN1C(=O)Nc1ccc(Cl)cc1 (stereo not drawn) [Compound 15] | 3.8 ± 1.1 | 170 ± 61.6 | 
19 | 31.3 ± 3.6 |  |  | CC1CN(C(=O)OC(C)(C)C)CCN1C(=O)Nc1ccc(C(F)(F)F)cc1 (stereo not drawn) [Compound 16] | 1.9 ± 0.4 | 60.1 ± 19.8 | 
20 | < 20 | 12.1 ± 0.6 |  | CC1CN(C(=O)c2cc3ccccc3o2)CCN1C(=O)Nc1ccc([N+](=O)[O-])cc1 (stereo not drawn) [Compound 18] | 2.5 ± 0.2 | 30.4 ± 1.8 | 
21 | 30.5 ± 1.1 |  |  | CC1CN(C(=O)c2cc3ccccc3o2)CCN1C(=O)Nc1ccc(Cl)cc1 (stereo not drawn) [Compound 19] |  | 261 ± 2.6 | 
22 | 31.7 ± 4.1 |  |  | CC1CN(C(=O)c2cc3ccccc3o2)CCN1C(=O)Nc1ccc(C(F)(F)F)cc1 (stereo not drawn) [Compound 20] |  | 244 ± 8.2 | 
23 | 28.1 ± 1.2 |  |  | CC1CN(C(=O)c2cc3ccccc3o2)CCN1C(=O)Nc1ccccc1[N+](=O)[O-] (stereo not drawn) [Compound 22] | 1.2 ± 0.1 | 32.4 ± 1.9 | 
24 | 31.4 ± 5.5 |  |  | COc1ccccc1NC(=O)N1CCN(C(=O)c2cc3ccccc3o2)CC1C (stereo not drawn) [Compound 23] | 2.3 ± 0.6 | 74.7 ± 30.2 | 
25 | 25.3 ± 1.6 |  |  | CC1CN(C(=O)c2cc3ccccc3o2)CCN1C(=O)Nc1ccccc1Br (stereo not drawn) [Compound 24] | 1.3 ± 0.1 | 33.5 ± 3.5 | 
26 | < 20 | 19.5 ± 3.5 |  | CC(C)(C)OC(=O)N1CCN(C(=O)Nc2ccc(C#N)cc2)C(c2ccccc2)C1 (stereo not drawn) [Compound 28] | 2.7 ± 0.8 | 55.2 ± 24.4 | 
27 | 24.8 ± 1.7 |  |  | CC(C)(C)OC(=O)N1CCN(C(=O)Nc2ccc(F)cc2)C(c2ccccc2)C1 (stereo not drawn) [Compound 29] | 2.2 ± 0.5 | 56.3 ± 16.5 | 
28 | 130 ± 31.4 |  |  | COc1ccc(NC(=O)N2CCN(C(=O)OC(C)(C)C)CC2c2ccccc2)cc1 (stereo not drawn) [Compound 33] | 2.6 ± 0.4 | 325 ± 27.6 | 
29 | 41.3 ± 4.2 |  |  | O=C(c1cc2ccccc2o1)N1CCN(C(=O)Nc2ccc(Cl)cc2)C(c2ccccc2)C1 (stereo not drawn) [Compound 36] | 4.0 ± 0.9 | 161 ± 16.5 | 
30 | 226 ± 175 |  |  | O=C(c1cc2ccccc2o1)N1CCN(C(=O)Nc2ccccc2[N+](=O)[O-])C(c2ccccc2)C1 (stereo not drawn) [Compound 39] | >2.5 | > 1000 | 
31 | 17.7 ± 5 | < 20 |  | CC1CN(C(=O)c2cc3ccccc3o2)CCN1C(=O)NC12CC3CC(CC(C3)C1)C2 (stereo not drawn) [Compound 41, 4-(Benzofuran-2-carbonyl)-2-methyl-1-[(1-adamantyl)aminocarbonyl]piperazine] | 5.1 ± 2.3 and ~ 5 | 103 ± 66.9 | 
